Results reported in US20240374631A1, “A COMPOSITION FOR IMPROVING GUT MICROBIOTA, BEHAVIOURAL PATTERN, ALPHA-SYNUCLEIN LEVELS, SLEEP PATTERN AND/OR SERUM MELATONIN” (GN Corporation Co Ltd, priority 2021, published 2024).

Test system: gut microbiota
Assay: Gut microbiome analysis (16S rRNA sequencing of fecal samples) in STAM model of NASH
Assay type: in vivo, C57BL/6J mice
Conditions: post-intervention
Description: The study is reported in accordance with Animal Research: Reporting of In Vivo Experiments (ARRIVE) guidelines. C57BL/6J mice were obtained from Japan SLC, Inc. (Japan). All animals used in this study were cared for under the following guidelines: Act on Welfare and Management of Animals (Ministry of the Environment, Japan, Act No. 105 of Oct. 1, 1973), standards relating to the care and management of laboratory animals and relief of pain (Notice No. 88 of the Ministry of the Environment, Japan, Apr. 28, 2006) and the guidelines for proper conduct of animal experiments (Science Council of Japan, Jun. 1, 2006). Protocol approvals were obtained from SMC Laboratories, Japan's IACUC (Study reference no: […] Mice were maintained in a specific pathogen-free (SPF) facility under controlled conditions of temperature (23±3° C.), humidity (50±20%), lighting (12-hour artificial light and dark cycles; light from 8:00 to 20:00) and air exchange. The STAM model of NASH was induced as previously described [D10]. Mice were given a single subcutaneous injection of 200 μg streptozotocin (STZ, Sigma-Aldrich, USA) solution 2 days after birth and fed with a high-fat diet (HFD, 57 kcal % fat, Cat #HFD32, CLEA Japan, Inc., Japan) from 4-9 weeks of age. All mice develop liver steatosis and diabetes and at […] mice had established steatohepatitis, histologically. Studygroups: There were five study groups, described below. Eight mice were included in each study group. Eight NASH mice were orally administered vehicle supplemented with AFO-202 Beta Glucan at a dose of 1 mg/kg in a volume of 5 mL/kg once daily from 6 to 9 weeks of age. Eight NASH mice were orally administered vehicle supplemented with Telmisartan at a dose of 10 mg/kg once daily from 6 to 9 weeks of age. Frequency: Fecal samples were collected at the 6 weeks of age (before administration) and 9 weeks of age (before sacrifice). Procedure: At 6 weeks of age, fecal samples were collected from each mouse by clean catch method. […] A sterile petri dish was placed on the bench. Gently massage the abdomen, position the bottom of mouse over a fresh petri dish, and collect 1-2 fecal pellets. At sacrifice, fecal samples were aseptically collected from cecum. The tubes with feces were placed on ice immediately. These tubes were snap frozen in liquid nitrogen and stored at -80° C. for shipping. In this analysis, the 16S rRNA sequence data acquired by the next-generation sequencer from the fecal […] was used to perform community analysis using the QIIME2 program for microbial community analysis. The raw read data in FASTQ format output from the next-generation sequencer was trimmed to remove adapter sequences and low QV regions that may be included in the data. Cutadapt was used to remove adapter sequences from DNA sequencing reads. Trimmomatic was used as read trimming tool for Illumina NGS data. The adapter sequence was trimmed using the adapter trimming program “cutadapt” if the Trimming of the region at the end of the read sequence overlapped the corresponding sequence by at least one base (mismatch tolerance: 20%). When reads containing N were present in at least one of Read1 and Read2, both Read1 and Read2 were removed. Trimming of low QV regions was performed on the read data after processing using the QV trimming program “Trimmomatic” under the following conditions. The window of 20 bases is slid from the 5' side, and the area where the average QV is less than 20 is trimmed. After trimming, only the reads with more than 50 bases remaining in both Read1 and Read2 were taken as output. The microbial community analysis based on 16S rRNA sequence was performed on the sequence data trimmed in the previous section using the microbial community analysis program “QIIME2”. The annotation program “sklearn” included in QIIME2 is used to annotate the ASV (OTU) sequences. […]

CCCc1nc2c(C)cc(-c3nc4ccccc4n3C)cc2n1Cc1ccc(-c2ccccc2C(=O)O)cc1 [Telmisartan]
Abundance: Ruminococcaceae, Oscillospira, — (line r190): 135
Abundance: Ruminococcaceae, Oscillospira, — (line r191): 53
Abundance: Lachnospiraceae, [Ruminococcus], gnavus (line r192): 87
Abundance: Ruminococcaceae, Oscillospira, — (line r193): 42
Abundance: Lactobacillaceae, Lactobaccilus, reuteri (line r194): 0
Abundance: Coriobacteriaceae, Adlercreutzia, — (line r195): 0
Abundance: Lachnospiraceae, —, — (line r196): 0
Abundance: S24-7, —, — (line r197): 49
Abundance: Turicibacteraceae, Turicibacter, — (line r198): 0
Abundance: S24-7, —, — (line r199): 41
Abundance: Rikenellaceae, —, — (line r200): 86
Abundance: Enterobacteriaceae, Other, Other (line r201): 0
Abundance: Rikenellaceae, Other, Other (line r202): 53
Abundance: Lactobacillaceae, Lactobaccilus, Other (line r204): 0
Abundance: —, —, — (line r205): 0
Abundance: S24-7, —, — (line r206): 45
Abundance: S24-7, —, — (line r207): 109
Abundance: —, —, — (line r208): 19
Abundance: Enterobacteriaceae, Klebsiella, Other (line r209): 0
Abundance: —, —, — (line r210): 3
Abundance: Lachnospiraceae, Other, Other (line r211): 137
Abundance: Ruminococcaceae, Oscillospira, — (line r212): 0
Abundance: Ruminococcaceae, Oscillospira, — (line r213): 65
Abundance: Bacteroidaceae, Bacteroides, acidifaciens (line r214): 35
Abundance: Erysipelotrichaceae, —, — (line r215): 0
Abundance: Lachnospiraceae, Dorea, — (line r216): 74
Abundance: Enterobacteriaceae, Enterobacter, Other (line r217): 41
Abundance: Ruminococcaceae, Oscillospira, — (line r218): 45
Abundance: Ruminococcaceae, Other, Other (line r219): 12
Abundance: Ruminococcaceae, Oscillospira, — (line r220): 184
Abundance: Rikenellaceae, —, — (line r221): 43
Abundance: —, —, — (line r222): 79
Abundance: Lachnospiraceae, Other, Other (line r223): 273
Abundance: Other, Other, Other (line r224): 87
Abundance: Ruminococcaceae, Oscillospira, — (line r225): 72
Abundance: S24-7, —, — (line r226): 85
Abundance: Lachnospiraceae, —, — (line r227): 0
Abundance: Streptococcaceae, Staphylococcus, — (line r228): 27
Abundance: —, —, — (line r229): 0
Abundance: —, —, — (line r230): 0
Abundance: —, —, — (line r231): 101
Abundance: Other, Other, Other (line r232): 71
Abundance: Aerococcaceae, Aerococcus, — (line r233): 187
Abundance: Ruminococcaceae, —, — (line r234): 0
Abundance: —, —, — (line r235): 108
Abundance: Ruminococcaceae, Oscillospira, — (line r237): 26
Abundance: —, —, — (line r238): 51
Abundance: Ruminococcaceae, Ruminococcus, — (line r239): 43
Abundance: —, —, — (line r240): 266
Abundance: Other, Other, Other (line r241): 48
Abundance: Ruminococcaceae, Oscillospira, — (line r242): 0
Abundance: Lachnospiraceae, [Ruminococcus], gnavus (line r243): 95
Abundance: Lachnospiraceae, —, — (line r244): 0
Abundance: Other, Other, Other (line r245): 45
Abundance: Ruminococcaceae, Oscillospira, — (line r246): 23
Abundance: —, —, — (line r247): 90
Abundance: Other, Other, Other (line r248): 11
Abundance: Other, Other, Other (line r249): 53
Abundance: Other, Other, Other (line r250): 57
Abundance: Lachnospiraceae, Clostridium, Other (line r251): 101
Abundance: Lachnospiraceae, —, — (line r252): 23
Abundance: Other, Other, Other (line r253): 0
Abundance: Other, Other, Other (line r254): 51
Abundance: Ruminococcaceae, Oscillospira, — (line r255): 38
Abundance: Desulfovibrionaceae, —, — (line r256): 42
Abundance: Dehalobacteriaceae, Dehalobacterium, — (line r257): 0
Abundance: Ruminococcaceae, Ruminococcus, — (line r259): 22
Abundance: Lachnospiraceae, Coprococcus, — (line r260): 46
Abundance: Ruminococcaceae, Oscillospira, — (line r261): 77
Abundance: Other, Other, Other (line r262): 38
Abundance: Lachnospiraceae, Coprococcus, — (line r263): 49
Abundance: Ruminococcaceae, Oscillospira, — (line r264): 0
Abundance: Christensenellaceae, —, — (line r265): 9
Abundance: S24-7, —, — (line r266): 8
Abundance: Ruminococcaceae, Oscillospira, — (line r267): 0
Abundance: Lachnospiraceae, Coprococcus, — (line r268): 29
Abundance: Lachnospiraceae, Other, Other (line r269): 0
Abundance: Erysipelotrichaceae, Clostridium, cocleatum (line r271): 34
Abundance: —, —, — (line r272): 0
Abundance: Desulfovibrionaceae, Bilophila, — (line r273): 17
Abundance: —, —, — (line r274): 0
Abundance: Corynebacteriaceae, Corynebacterium, stationis (line r275): 0
Abundance: Lachnospiraceae, Other, Other (line r276): 34
Abundance: Lachnospiraceae, Other, Other (line r277): 82
Abundance: Lachnospiraceae, —, — (line r278): 10
Abundance: Lachnospiraceae, —, — (line r279): 0
Abundance: —, —, — (line r280): 0
Abundance: —, —, — (line r281): 84
Abundance: —, —, — (line r282): 0
Abundance: Ruminococcaceae, —, — (line r283): 0
Abundance: —, —, — (line r284): 0
Abundance: Lachnospiraceae, —, — (line r285): 0
Abundance: Dehalobacteriaceae, Dehalobacterium, — (line r286): 43
Abundance: Other, Other, Other (line r287): 68
Abundance: Streptococcaceae, Streptococcus, luteciae (line r288): 0
Abundance: —, —, — (line r289): 0
Abundance: S24-7, —, — (line r290): 36
Abundance: Ruminococcaceae, Ruminococcus, — (line r292): 0
Abundance: Lachnospiraceae, Clostridium, Other (line r293): 0
Abundance: —, —, — (line r294): 10
Abundance: Ruminococcaceae, Oscillospira, — (line r295): 22
Abundance: Lachnospiraceae, Coprococcus, — (line r296): 30
Abundance: —, —, — (line r297): 0
